From DBAASP
Values after ≈ are worked out from the molar mass of the structure shown.

How the values were obtained:
Assay in all cases: ≥ marks a high value that may be exact or a test limit, other limits are often not marked, values filed in µg/mL are converted to µM
[1] = test system: Escherichia coli K12 MG1655
[2] = test system: Staphylococcus aureus 68 HER 1049
[3] = test system: Candida albicans 01U
[4] = test system: Candida albicans 38U
[5] = test system: Candida parapsilosis
[6] = test system: Cryptococcus neoformans L26
[7] = test system: Cryptococcus neoformans L30
[8] = test system: Trichophyton mentagrophytes
[9] = test system: Trichophyton rubrum
[10] = test system: Bacillus subtilis DSM 347
[11] = test system: Escherichia coli DH5alpha
[12] = test system: Franconibacter helveticus DSM 18396
[13] = test system: Kocuria rhizophila DSM 348
[14] = test system: Bacillus subtilis ATCC 6051
[15] = test system: Escherichia coli ATCC 25922
[16] = test system: Escherichia coli NEB5alpha
[17] = test system: Pseudomonas aeruginosa ATCC 27853
[18] = test system: Staphylococcus aureus ATCC 29313
[19] = test system: Xanthomonas axonopodis pv. glycines ISBF 327
[20] = test system: Bacillus cereus ATCC 14579
[21] = test system: Bacillus subtilis ATCC 23858
[22] = test system: Listeria monocytogenes ATCC 7644
[23] = test system: Staphylococcus aureus ATCC 33591
[24] = test system: Klebsiella pneumoniae ATCC 700603
[25] = test system: Pseudomonas aeruginosa PA006
[26] = test system: Pseudomonas aeruginosa PAO1
[27] = test system: Pseudomonas aeruginosa Pa1-SA2
[28] = test system: Pseudomonas aeruginosa Pa4-SA2
[29] = test system: Salmonella enterica subsp. enterica serovar Typhimurium ATCC 14028
[30] = test system: Erwinia amylovora PMV 6076
[31] = test system: Pseudomonas syringae pv. syringae EPS 94
[32] = test system: Xanthomonas campestris pv. Vesicatoria 2133-2

CC[C@H](C)[C@H](NC(=O)[C@H](CCCN=C(N)N)NC(=O)[C@H](CCCCN)NC(=O)[C@H](Cc1c[nH]c2ccccc12)NC(=O)[C@H](CCCN=C(N)N)NC(=O)[C@H](CCCCN)NC(=O)[C@H](Cc1c[nH]c2ccccc12)NC(=O)[C@@H](N)Cc1c[nH]c2ccccc12)C(=O)N[C@@H](CCCN=C(N)N)C(=O)N[C@@H](CCCN=C(N)N)C(=O)N[C@H](C(=O)N[C@@H](Cc1ccccc1)C(=O)N[C@@H](CCSC)C(=O)N[C@@H](CCSC)C(=O)N[C@H](C(=O)O)C(C)C)[C@@H](C)CC [WWKRWKRIRRIFMMV]
MIC [1]: 1.82 µM (≈ 4 µg/mL) | MIC [2]: 3.65 µM (≈ 8 µg/mL)

CC[C@H](C)[C@H](NC(=O)[C@H](CC(C)C)NC(=O)[C@H](CCC(=O)O)NC(=O)[C@H](CO)NC(=O)[C@H](CCCN=C(N)N)NC(=O)[C@@H](N)CO)C(=O)N[C@H](C(=O)N[C@@H](Cc1cnc[nH]1)C(=O)N[C@@H](CCC(N)=O)C(=O)N[C@@H](CCCN=C(N)N)C(=O)N[C@@H](CCCN=C(N)N)C(=O)N[C@@H](CS)C(N)=O)C(C)C [SRSELIVHQRRC]
MIC [3]: ≥ 86.3 µM | MIC [4]: ≥ 43.1 µM | MIC [5]: ≥ 173 µM | MIC [6]: ≥ 173 µM | MIC [7]: ≥ 173 µM | MIC [8]: ≥ 173 µM | MIC [9]: ≥ 86.3 µM

CC[C@H](C)[C@H](NC(=O)CN)C(=O)NCC(=O)N[C@@H](CCCCN)C(=O)N[C@@H](Cc1ccccc1)C(=O)N[C@@H](CC(C)C)C(=O)N[C@@H](Cc1cnc[nH]1)C(=O)N[C@@H](CO)C(=O)N[C@@H](C)C(=O)N[C@@H](CCCCN)C(=O)N[C@@H](CCCCN)C(=O)N[C@@H](Cc1ccccc1)C(=O)NCC(=O)N[C@@H](CCCCN)C(=O)N[C@@H](C)C(=O)N[C@@H](Cc1ccccc1)C(=O)N[C@@H](C)C(=O)NCC(=O)N[C@@H](CCC(=O)O)C(=O)N[C@H](C(=O)N[C@@H](CCSC)C(=O)N[C@@H](CC(N)=O)C(=O)N[C@@H](CO)C(=O)O)[C@@H](C)CC [GIGKFLHSAKKFGKAFAGEIMNS]
MIC [10]: 8 µM (≈ 19.5 µg/mL) | MIC [11]: ≥ 64 µM | MIC [12]: ≥ 64 µM | MIC [13]: ≥ 64 µM

CC[C@H](C)[C@H](NC(=O)[C@@H]1CCCN1C(=O)[C@H](Cc1cnc[nH]1)NC(=O)[C@H](CCCCN)NC(=O)[C@@H]1CCCN1C(=O)[C@@H](N)CCCN=C(N)N)C(=O)N[C@@H](CCCCN)C(=O)N[C@@H](Cc1cnc[nH]1)C(=O)N[C@@H](CCC(N)=O)C(=O)NCC(=O)N[C@@H](CC(C)C)C(=O)N1CCC[C@H]1C(=O)N[C@@H](CCC(N)=O)C(=O)N[C@@H](CCC(=O)O)C(=O)N[C@H](C(=O)N[C@@H](CC(C)C)C(=O)N[C@@H](CC(N)=O)C(=O)N[C@@H](CCC(=O)O)C(=O)N[C@@H](CC(N)=O)C(=O)N[C@@H](CC(C)C)C(=O)N[C@@H](CC(C)C)C(=O)N[C@@H](CCCN=C(N)N)C(=O)N[C@@H](Cc1ccccc1)C(=O)N[C@@H](Cc1ccccc1)C(=O)O)C(C)C [RPKHPIKHQGLPQEVLNENLLRFF]
MIC [14]: 23.6 µM (≈ 68.8 µg/mL) | MIC [15]: 189 µM (≈ 550 µg/mL) | MIC [16]: ≥ 47.2 µM

CC[C@H](C)[C@H](NC(=O)[C@@H](NC(=O)[C@H](CCCCN)NC(=O)[C@H](CCCCN)NC(=O)[C@H](CC(C)C)NC(=O)[C@@H](NC(=O)[C@H](CC(N)=O)NC(=O)[C@H](CC(C)C)NC(=O)CN)[C@@H](C)O)C(C)C)C(=O)N[C@@H](CCC(N)=O)C(=O)NCC(=O)N[C@@H](CC(C)C)C(=O)N[C@@H](Cc1cnc[nH]1)C(=O)N[C@@H](CCC(=O)O)C(=O)N[C@H](C(=O)N[C@H](C(=O)N[C@@H](CCCCN)C(=O)N[C@@H](CC(C)C)C(=O)N[C@H](C(=O)N[C@@H](CC(N)=O)C(=O)N[C@@H](CC(N)=O)C(=O)N[C@@H](Cc1cnc[nH]1)C(=O)N[C@@H](C)C(N)=O)C(C)C)[C@@H](C)CC)C(C)C [GLNTLKKVIQGLHEVIKLVNNHA]
MIC [15]: 6 µM (≈ 15.2 µg/mL) | MIC [17]: 50 µM (≈ 127 µg/mL) | MIC [18]: 6 µM (≈ 15.2 µg/mL) | MIC [19]: 2 µM (≈ 5.08 µg/mL)

CC[C@H](C)[C@H](NC(=O)[C@H](CC(C)C)NC(=O)[C@@H]1CCCN1C(=O)[C@H](CC(C)C)NC(=O)[C@@H](N)Cc1ccccc1)C(=O)N[C@@H](CC(C)C)C(=O)N1CCC[C@H]1C(=O)N[C@@H](CO)C(=O)N[C@H](C(=O)N[C@H](C(=O)N[C@H](C(=O)N[C@@H](C)C(=O)N[C@@H](CC(C)C)C(=O)N[C@@H](CO)C(=O)N[C@@H](CO)C(=O)N[C@@H](Cc1ccccc1)C(=O)N[C@@H](CC(C)C)C(=O)N[C@@H](CCCCN)C(=O)N[C@@H](CCC(N)=O)C(=O)NCC(=O)O)[C@@H](C)O)C(C)C)[C@@H](C)CC [FLPLILPSIVTALSSFLKQG]
MIC [20]: 23.3 µM (≈ 50 µg/mL) | MIC [21]: 23.3 µM (≈ 50 µg/mL) | MIC [22]: ≥ 46.6 µM | MIC [23]: 11.7 µM (≈ 25.1 µg/mL)

CC[C@H](C)[C@H](NC(=O)[C@H](CCCCN)NC(=O)CNC(=O)[C@@H](NC(=O)[C@H](C)NC(=O)[C@H](Cc1cnc[nH]1)NC(=O)[C@H](C)NC(=O)[C@@H](NC(=O)[C@H](CC(C)C)NC(=O)[C@H](CCC(N)=O)NC(=O)[C@H](CCCCN)NC(=O)CNC(=O)[C@H](C)NC(=O)[C@H](CC(=O)O)NC(=O)[C@H](CCCCN)NC(=O)[C@@H](NC(=O)[C@@H](NC(=O)[C@H](CC(=O)O)NC(=O)[C@H](Cc1ccccc1)NC(=O)[C@@H](NC(=O)CN)C(C)C)[C@@H](C)CC)[C@@H](C)CC)C(C)C)[C@@H](C)O)C(=O)N[C@@H](C)C(=O)N[C@@H](CCC(=O)O)C(=O)N[C@@H](CCCCN)C(=O)N[C@H](C(N)=O)C(C)C [GVFDIIKDAGKQLVAHATGKIAEKV]
MIC [15]: > 307 µM | MIC [24]: > 307 µM | MIC [17]: 392 µM (≈ 1020 µg/mL) | MIC [25]: 6.13 µM (≈ 16 µg/mL) | MIC [26]: 196 µM (≈ 512 µg/mL) | MIC [27]: ≥ 98.1 µM | MIC [28]: ≥ 49.1 µM | MIC [29]: > 307 µM | MIC [18]: ≥ 307 µM

CC[C@H](C)[C@H](NC(=O)[C@H](CCCCN)NC(=O)[C@H](CCCCN)NC(=O)[C@H](Cc1ccccc1)NC(=O)[C@H](CC(C)C)NC(=O)[C@H](CCCCN)NC(=O)[C@H](CCCCN)NC(=O)[C@H](C)NC(=O)[C@@H]1CCCN1C(=O)CNC(=O)[C@H](C)NC(=O)[C@H](CC(C)C)NC(=O)[C@H](Cc1ccc(O)cc1)NC(=O)[C@H](CCCCN)NC(=O)[C@H](CC(C)C)NC(=O)[C@@H](NC(=O)[C@H](CCCCN)NC(=O)[C@H](CCCCN)NC(=O)[C@H](Cc1ccccc1)NC(=O)[C@H](CC(C)C)NC(=O)[C@H](CCCCN)NC(=O)[C@H](CCCCN)NC(=O)[C@@H](N)CO)[C@@H](C)CC)C(=O)N[C@@H](CC(C)C)C(=O)N[C@@H](CCCCN)C(=O)N[C@@H](Cc1ccc(O)cc1)C(=O)N[C@@H](CC(C)C)C(=O)O [SKKLFKKILKYLAGPAKKLFKKILKYL]
MIC [30]: 14.1 µM (≈ 45.4 µg/mL) | MIC [31]: 8.66 µM (≈ 27.8 µg/mL) | MIC [32]: 14.1 µM (≈ 45.4 µg/mL)
